{"source": "PubChem BioAssay AID743394", "about": "(Broad Institute, 2014)", "note": "Calls of active or inactive are those of the source.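 The calls were made as follows: active = 40% activation versus positive control reached by fitted dose-response curve at or below highest valid tested dose; inconclusive = poor fit quality, or flat fit with activation between 30% and 70%; inactive = the rest.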"}
{"experiment": "Xi-linked GFP reactivating small molecules – imaging, 68-5-11 mouse fibroblasts, cherry-pick, dose response (AID 743394);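 also: sensitizer 5-aza-dC present in the wells at 0.5 mM final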", "details": "68-5-11 mouse fibroblast XiGFP reporter, % GFP-positive imaging, 3 d; at 19.5 µM (top of the series)"}
{"smiles": "COC(=O)Cn1cc(/C=C2\\C(=O)NC(=O)N(c3ccc(OC)cc3)C2=O)c2ccccc21", "activation": "0.09% (inactive)"}
{"smiles": "O=C(Cc1ccccn1)N1CCCCN2[C@H](C1)[C@@H](c1ccc(-c3ccccc3F)cc1)[C@@H]2CO", "activation": "1.33% (inactive)"}
{"smiles": "O=c1[nH]c(=O)n(CCC2=CCCCC2)c(O)c1/C=N/Nc1ccccc1", "activation": "-0.002% (inactive)"}
{"smiles": "Cc1ccc2[nH]c(=S)n(-c3cccnc3)c(=O)c2c1", "activation": "-0.035% (inactive)"}
{"experiment": "Xi-linked GFP reactivating small molecules – imaging, 68-5-11 mouse fibroblasts, cherry-pick, dose response (AID 743394);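 also: sensitizer 5-aza-dC present in the wells at 0.5 mM final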", "details": "68-5-11 mouse fibroblast XiGFP reporter, % GFP-positive imaging, 3 d; at 19.5 µM (top of the series); cells co-treated with 5-aza-dC sensitizer; scaled: neutral wells 0, ellipticine wells 100"}
{"smiles": "Cc1cc2c(NC(=O)Nc3ccc(C(C)(C)C)cc3)cccc2nn1", "activation": "0.068% (inactive)"}
{"smiles": "Nc1ccccc1Sc1ccc(C(F)(F)F)cc1[N+](=O)[O-]", "activation": "0.953% (inactive)"}
{"smiles": "C[C@@H]1COc2cccc(NCCO)c2S(=O)(=O)N1", "activation": "0.028% (inactive)"}
{"smiles": "CCCCn1nnnc1C(c1ccccc1)N1CCN(c2ccc(C)cc2)CC1", "note": "(stereo unspecified)", "activation": "0.03% (inactive)"}
{"smiles": "Cc1onc(-c2c(Cl)cccc2Cl)c1-c1nc2cc(Cl)ccc2c(=O)o1", "activation": "-0.032% (inactive)"}
{"smiles": "CCSc1nnc(NC(=O)c2cc(OC)c(OC)c(OC)c2)s1", "activation": "0.316% (inactive)"}
{"smiles": "Cc1cccc(C(=O)NCc2ccc(S(N)(=O)=O)cc2)c1[N+](=O)[O-]", "activation": "0.077% (inactive)"}
{"smiles": "CO[C@H]1CN(C)C(=O)c2ccc(NC(=O)C3CCCCC3)cc2OC[C@H](C)NC[C@@H]1C", "activation": "0.017% (inactive)"}
{"smiles": "CS(=O)(=O)c1ccc(S(=O)CC(=O)OCc2ccccc2)c([N+](=O)[O-])c1", "note": "(stereo unspecified)", "activation": "-0.127% (inactive)"}
{"smiles": "NNC(=O)/C(=C\\c1ccc(Br)cc1)NC(=O)c1cccs1", "activation": "-0.053% (inactive)"}
{"smiles": "CC(C)CC#Cc1ccc([C@@H]2[C@@H](CO)N3C(=O)CN(C(=O)c4cccc(F)c4)C[C@H]23)cc1", "activation": "0.027% (inactive)"}
{"smiles": "CN(C)C=NC(=O)c1cc(C(=O)c2ccc(Cl)cc2Cl)c[nH]1", "activation": "-0.032% (inactive)"}
{"smiles": "CCCCNc1nc2c(-c3ccccc3)nnn2c2ccccc12", "activation": "0.101% (inactive)"}
{"smiles": "COc1cc(/C=N/Nc2nc(N3CCCC3)nc(N3CCCC3)n2)ccc1OCc1ccccc1F", "activation": "0.149% (inactive)"}
{"smiles": "O=C(CCl)N=c1sccn1Cc1ccc(Cl)cc1Cl", "activation": "0.591% (inactive)"}
{"smiles": "Brc1ccc(-c2cn3ccccc3n2)cc1", "activation": "-0.039% (inactive)"}
{"smiles": "Cc1ccc2c(COC(=O)C34CC5CC(CC(C5)C3)C4)cc(=O)oc2c1", "activation": "-0.07% (inactive)"}
{"smiles": "O=C(NCCO)/C(=C/c1ccco1)NC(=O)c1ccco1", "activation": "-0.047% (inactive)"}
{"smiles": "CCOC(=O)/C(C#N)=C/C=C1/C=CC=CN1C", "activation": "0.071% (inactive)"}
{"smiles": "CC(=O)c1cccc(-c2ccc3c(c2)C(C)(Cc2ccc(S(C)(=O)=O)cc2)C(=O)N3)c1", "note": "(stereo unspecified)", "activation": "-0.032% (inactive)"}
{"smiles": "Cc1noc(C)c1NC(=O)N[C@H]1CC[C@H](CC(=O)N2CCN(C)CC2)O[C@H]1CO", "activation": "0.116% (inactive)"}
{"smiles": "CCOC(=O)C1=C(C)NC(=S)NC1/C=C/c1ccccc1", "note": "(stereo unspecified)", "activation": "-0.024% (inactive)"}
{"smiles": "CCOc1ccc(NC(=S)NC(C)c2cccs2)cc1", "note": "(stereo unspecified)", "activation": "0.358% (inactive)"}
{"smiles": "CN(Cc1nccn1C)C(=O)CC1C(=O)NCCN1CC(c1ccccc1)c1ccccc1", "note": "(stereo unspecified)", "activation": "0.001% (inactive)"}
{"smiles": "CCOc1ccc(CCN2C(=S)N([C@@H](Cc3ccccc3)CN3CCC[C@@H]3CN3C(=S)NC[C@@H]3CC(C)C)C[C@@H]2Cc2ccccc2)cc1", "activation": "0.011% (inactive)"}
{"smiles": "O=C1c2ccc3c4c(ccc(c24)C(=O)N1c1cccc(O)c1)C(=O)N(c1cccc(O)c1)C3=O", "activation": "-0.037% (inactive)"}
{"smiles": "Cc1ccc(C)c(OCCC(=O)Nc2cc(S(=O)(=O)N3CCCCC3)ccc2C)c1", "activation": "-0.008% (inactive)"}
{"smiles": "O=C(O)c1ccc(COc2ccccc2C=C2C(=O)c3ccccc3C2=O)cc1", "activation": "0.163% (inactive)"}
{"smiles": "C[C@@H]1ON(C)[C@H]2C[C@H]3c4cc(-c5cccc(F)c5)ccc4CCN3C(=O)[C@@H]12", "activation": "0.187% (inactive)"}
{"smiles": "O=C(COC(=O)c1ccc(NS(=O)(=O)c2cccs2)cc1O)NC1CCCCC1", "activation": "0.098% (inactive)"}
{"smiles": "C[C@H](CO)N1C[C@H](C)[C@H](CN(C)S(=O)(=O)c2ccccc2)Oc2ccc(NS(=O)(=O)c3ccc(Cl)cc3)cc2C1=O", "activation": "0.163% (inactive)"}
{"smiles": "COc1ccc(/C=C2\\CCc3ccccc3C2=O)cc1CN1CCOCC1", "activation": "0.231% (inactive)"}
{"smiles": "CC(C)n1c(NCc2cc(Cl)ccc2O)nc2ccccc21", "activation": "-0.029% (inactive)"}
{"smiles": "Cn1cc(C(=O)N/N=C/C(Br)=C/c2ccccc2)ccc1=O", "activation": "-0.07% (inactive)"}
{"smiles": "COc1ccc(OCCN2CCC(C(=O)NC(c3ccc(C)cc3)c3ccccn3)CC2)cc1", "note": "(stereo unspecified)", "activation": "0.883% (inactive)"}
{"smiles": "CC(=O)Nc1sc(C)c(C)c1C(=O)OCC(=O)Nc1cc(S(C)(=O)=O)ccc1Cl", "activation": "0.641% (inactive)"}
{"smiles": "C/C(=N\\NC(=O)CC1N=C(Cc2ccccc2)NNC1=O)c1ccc(Br)cc1", "note": "(stereo unspecified)", "activation": "0.028% (inactive)"}
{"smiles": "O=c1c2ccccc2nnn1Cc1ccc2ccccc2c1", "activation": "-0.047% (inactive)"}
{"smiles": "CCCOc1ccc(Oc2nc(-c3ccncc3)nc3ccccc23)cc1", "activation": "0.003% (inactive)"}
{"smiles": "CCN(CC)CCCN=Cc1c(O)n(-c2cccc(C)c2)c(=O)c2ccccc12", "activation": "-0.005% (inactive)"}
{"smiles": "COC(=O)c1ccc(CNC(=O)COC(=O)c2cc(Cl)ccc2O)cc1", "activation": "0.385% (inactive)"}
{"smiles": "COc1ccc(C2=C(c3ccccc3)OC(OC)c3cc(F)ccc32)cn1", "note": "(stereo unspecified)", "activation": "0.027% (inactive)"}
{"smiles": "O=C(Nc1c(Cl)cccc1Cl)Oc1cccc2cccnc12", "activation": "-0.037% (inactive)"}
{"smiles": "CCOC(=O)Nc1cc2c(c(N)n1)N=C(c1ccccc1)CN2", "activation": "-0.053% (inactive)"}
{"smiles": "Cc1nc(NC(=O)C(Cl)Cl)sc1C(=O)N(C)C", "activation": "-0.034% (inactive)"}
{"smiles": "N#CC(C#N)=C1C=CC=CN1/C(=C\\c1ccco1)C(=O)c1ccc(Br)cc1", "activation": "8.49% (inactive)"}
{"smiles": "C=CCn1c(=S)[nH]c2scc(-c3ccco3)c2c1=O", "activation": "0.072% (inactive)"}
{"smiles": "COc1ccc(CN(C)Cc2nc(Cc3ccccc3Cl)no2)cc1OC", "activation": "-0.032% (inactive)"}
{"smiles": "COc1cc(CN2CCC(C(=O)NCC(C)(C)CN(C)C)CC2)ccc1OCc1ccccc1", "activation": "-0.029% (inactive)"}
{"smiles": "COc1ccc2c3c([nH]c2c1)[C@@H](CO)N(Cc1cc(F)ccc1F)CC31CCN(C(C)=O)CC1", "activation": "-0.023% (inactive)"}
{"smiles": "Cc1[nH]c2ccccc2c1/C=N/Nc1nc2ccccc2[nH]1", "activation": "-0.075% (inactive)"}
{"smiles": "C/C=C/c1ccc(C2[C@H]3CNC[C@@H]2N3Cc2cc(-c3ccccc3)on2)cc1", "note": "(stereo partly specified)", "activation": "-0.031% (inactive)"}
{"smiles": "O=C1Nc2ccccc2/C1=C/c1ccccc1Cl", "activation": "-0.034% (inactive)"}
{"smiles": "C=CCn1c(SCC(=O)N(CC)C2CCS(=O)(=O)C2)nc2sc3c(c2c1=O)CCC3", "note": "(stereo unspecified)", "activation": "-0.061% (inactive)"}
{"smiles": "CC(=NNC(=S)Nc1cccc(Cl)c1)c1ccccn1", "activation": "-0.035% (inactive)"}
{"smiles": "COc1ccc(NC(=O)C(=O)NCCC2CCCCN2S(=O)(=O)c2cccs2)cc1", "note": "(stereo unspecified)", "activation": "6.11% (inactive)"}
{"smiles": "O=C(CC1C(=O)Nc2ccccc2N1CC(=O)N1CCCC1)Nc1ccc(Br)cc1", "note": "(stereo unspecified)", "activation": "-0.001% (inactive)"}
{"smiles": "CCOC(=O)[C@]12CCC=C1N(Cc1ccccc1)C(=O)[C@H](CC(=O)N1CCSCC1)C2", "activation": "-0.008% (inactive)"}
{"smiles": "Nc1ccc(-c2nc3ccccc3[nH]2)cc1", "activation": "-0.039% (inactive)"}
{"smiles": "CCc1ccc(C(=O)NNc2ccc(S(N)(=O)=O)cc2)cc1", "activation": "-0.007% (inactive)"}
{"smiles": "Cc1ccccc1NC(=O)c1cn2c(nc3ccccc32)c(C#N)c1C", "activation": "3.72% (inactive)"}
{"smiles": "Cc1cc(-c2nc(C)c(-c3nnc(SCC(=O)Nc4ccc(Cl)cc4)n3C)s2)no1", "activation": "0.023% (inactive)"}
{"smiles": "COc1ccccc1N1CCN(C(=O)CN2C(=O)c3cccc4cccc(c34)C2=O)CC1", "activation": "0.077% (inactive)"}
{"smiles": "COc1ccc(C2=NOC3(CC(=O)N(c4ccc(F)cc4)C3=O)C2)cc1", "note": "(stereo unspecified)", "activation": "0.015% (inactive)"}
{"smiles": "Cc1ccc(Cn2ccsc2=NC(=O)CCl)cc1", "activation": "-0.035% (inactive)"}
{"smiles": "C[C@H](CO)N1C[C@H](C)[C@H](CN(C)C(=O)Nc2ccc(F)cc2)Oc2ncc(C#Cc3cccc(F)c3)cc2C1=O", "activation": "-0.031% (inactive)"}
{"smiles": "COc1ccc(CN(C)C[C@H]2OCCCC[C@@H](C)Oc3ccc(NC(=O)Nc4ccc(F)cc4)cc3C(=O)N([C@@H](C)CO)C[C@H]2C)cc1", "activation": "3.19% (inactive)"}
{"smiles": "O=C(CCN1CCCCC1)NCC[C@@H]1CC[C@H](NC(=O)C2CCCCC2)[C@H](CO)O1", "activation": "0.052% (inactive)"}
{"smiles": "O=C(c1cnccn1)N1CC(=O)N2[C@H](CO)[C@@H](c3ccc(-c4cccc(F)c4)cc3)[C@@H]2C1", "activation": "-0.014% (inactive)"}
{"smiles": "CCN1C(=O)C(=Cc2cccc(OC)c2Oc2ccc([N+](=O)[O-])cc2[N+](=O)[O-])SC1=S", "activation": "-0.008% (inactive)"}
{"smiles": "Cc1ccc(C(=O)NCc2ccccn2)cc1NC1=NC2CS(=O)(=O)CC2S1", "note": "(stereo unspecified)", "activation": "0.151% (inactive)"}
{"smiles": "CC(NC(=O)c1ccccc1)C(=O)N/N=C/c1ccccc1", "note": "(stereo unspecified)", "activation": "0.535% (inactive)"}
{"smiles": "CCN1CCN(c2cc(C)c3cc(NC(=O)c4cccs4)ccc3n2)CC1", "activation": "-0.032% (inactive)"}
{"smiles": "O=C(Nc1ccccc1)N1C[C@@H]2[C@H](c3ccccc31)[C@H](CO)N2C(=O)c1ccccc1F", "activation": "0.2% (inactive)"}
{"smiles": "COc1ccc(-c2noc(-c3cccs3)n2)cc1OC", "activation": "0.151% (inactive)"}
{"smiles": "Cc1cc(=O)[nH]c(N/N=C/c2cc(C)n(CC(F)(F)F)c2C)n1", "activation": "0.184% (inactive)"}
{"smiles": "Cc1c(CN2CCCC(C(=O)c3cccc(OC(C)C)c3)C2)c(=O)n(-c2ccccc2)n1C", "note": "(stereo unspecified)", "activation": "-0.016% (inactive)"}
{"smiles": "Nc1ccccc1C#CC(=O)c1ccccc1", "activation": "-0.07% (inactive)"}
{"smiles": "C[C@@H]1CN([C@@H](C)CO)C(=O)c2ccccc2-c2ccccc2CO[C@@H]1CN(C)C(=O)Nc1ccc2c(c1)OCO2", "activation": "0.081% (inactive)"}
{"smiles": "COc1ccc2c3c(n(C)c2c1)[C@@H](CO)N(C(=O)NC(C)C)CC31CN(C(C)=O)C1", "activation": "0.015% (inactive)"}
{"smiles": "O=c1[nH]nc(SCCS(=O)(=O)c2ccc(F)cc2)n1-c1ccccc1C(F)(F)F", "activation": "-0.024% (inactive)"}
{"experiment": "Xi-linked GFP reactivating small molecules – imaging, 68-5-11 mouse fibroblasts, cherry-pick, dose response (AID 743394);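 also: sensitizer 5-aza-dC present in the wells at 0.5 mM final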", "details": "68-5-11 mouse fibroblast XiGFP reporter, % GFP-positive imaging, 3 d; at 21 µM (top of the series); cells co-treated with 5-aza-dC sensitizer; scaled: neutral wells 0, ellipticine wells 100"}
{"smiles": "COc1ccc(S(=O)(=O)N(C)C[C@@H]2OCc3cn(nn3)CCCC(=O)N([C@@H](C)CO)C[C@@H]2C)cc1", "activation": "0.05% (inactive)"}
